Source: ChEMBL document CHEMBL5728176, “Substituted pyrimidines for treating bacterial infections” (2020)

Test: nhibition Assay against Klebsiella pneumoniae LpxC: LpxC inhibition assays were performed using liquid chromatography with tandem mass spectrometry. Assays were performed, in duplicate, in opaque, 96-well microplates in a total assay volume of 50 μL. The incubation mixture contained: LpxC (0.2 nM Kpn), 0.8 μM UDP-3-O—[(R)-3-hydroxymyristoyl]-N-acetyl-glucosamine, 40 mM Bis-Tris/HCl buffer (pH 5.9), 5 mM sodium phosphate buffer (NaH2PO4/Na2HPO4, pH 7.0), 1 mM DTT, 0.1% (w/v) fatty-acid free BSA, 10% DMSO (v/v, with or without compound). The reactions were incubated at 22° C. for 60 minutes (with mild shaking), then terminated by the addition of 25 μL 0.25 N HCl. Samples were analyzed using a LC-MS system to measure native LpxC substrate and reaction product. IC50 analysis was done using GeneData Screener and a four parameter variable slope normalized to controls. Test compounds were prepared as 8-point dose-response curves (factor dilution 2) in triplicate, starting at 1 μM final concentration. Each assay plate included 6 wells used for the Z′ factor calculation, 3 as a positive control for the assay and 3 as a negative control. The robustness was calculated as the median Z′ factor for 5 plates. Chir-90, a well-known inhibitor of LpxC activity was used as inhibitor control standard.

In the case of `C[C@@H](O)[C@H](NC(=O)c1ccc(C#Cc2ccc(CN3CCOCC3)cc2)cc1)C(=O)NO`, the IC50 is reported as < 1 nM.
